In patent US8658646B2, “Pyrrolopyrazine kinase inhibitors” (Hoffmann-LaRoche Inc., priority 2011, dated 2014) one finds IC50 data, which are given here for 26 compounds.

The target in assay [1] is T1, recombinant human SYK360-635 (Homo sapiens, UniProt P43405).
T1 construct: made in house
Kind of assay: Determination of IC50 of Spleen Tyrosine Kinase (SYK) inhibition, 33P ATP filtration assay. It counts as biochemical. The following applies: SYK aa 360-635 0.5 nM; ATP 20 μM, peptide 5 μM, 0.1% BSA; read-out: SYK_ENZYME_FILTRATION/v1, BSA.

Assay [2] addresses T2, JAK3: Recombinant human kinase domain (Homo sapiens, UniProt P52333).
T2 construct: JAK3: Recombinant human kinase domain from Millipore (Cat #14-629) or prepared; purchased Millipore 14-629
The assay is described as follows: Determination of IC50 of Janus Kinase (JAK) inhibition, radioactive end-point 33P-ATP assay, JAK3. It counts as biochemical. Particulars: ATP 1.5 uM, peptide 50 uM, 20 minutes, read-out: JAK3-INHIB-DR/v1~NO ADDITIVE~Enzyme_Conc = 100.

A value given as a limit tells only on which side of the number the result lay.

T2 sequence (P52333 822-1111 limits assumed): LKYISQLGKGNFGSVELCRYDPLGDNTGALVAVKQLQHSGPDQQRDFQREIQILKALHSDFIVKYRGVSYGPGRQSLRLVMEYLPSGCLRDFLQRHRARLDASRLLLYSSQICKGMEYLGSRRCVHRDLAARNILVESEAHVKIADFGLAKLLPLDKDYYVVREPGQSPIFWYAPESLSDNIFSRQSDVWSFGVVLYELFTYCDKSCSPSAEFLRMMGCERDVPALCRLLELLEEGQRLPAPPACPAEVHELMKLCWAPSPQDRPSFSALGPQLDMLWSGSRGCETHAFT

With `Cn1nc(-c2cnc3[nH]cc(C(=O)N[C@H]4CC[C@@H](O)C4)c3n2)c2ccc(F)cc21` (relative stereo) [Example I-46, 2-(6-Fluoro-1-methyl-1H-indazol-3-yl)-5H-pyrrolo[2,3-b]pyrazine-7-carboxylic acid (cis-3-hydroxy-cyclopentyl)-amide], the IC50 in assay [1] amounted to 10.3 nM; in assay [2], 2.86 nM.

For the compound `Cn1nc(-c2cnc3[nH]cc(C(=O)N[C@H]4CC[C@H](O)C4)c3n2)c2ccc(F)cc21` (relative stereo) [Example I-47, 2-(6-Fluoro-1-methyl-1H-indazol-3-yl)-5H-pyrrolo[2,3-b]pyrazine-7-carboxylic acid (trans-3-hydroxy-cyclopentyl)-amide], the IC50 in assay [1] was determined as 21.9 nM; in assay [2], 5.31 nM.

Regarding `Cn1nc(-c2cnc3[nH]cc(C(=O)N[C@H]4CC[C@@H](CC#N)C4)c3n2)c2ccc(F)cc21` (relative stereo) [Example I-57, 2-(6-Fluoro-1-methyl-1H-indazol-3-yl)-5H-pyrrolo[2,3-b]pyrazine-7-carboxylic acid (cis-3-cyanomethyl-cyclopentyl)-amide], the IC50 in assay [1] worked out at 44.4 nM; in assay [2], 10.6 nM.

Consider `Cn1nc(-c2cnc3[nH]cc(C(=O)N[C@@H]4CCC[C@@H](O)C4)c3n2)c2ccc(Cl)cc21` (relative stereo) [Example I-148, 2-(6-Chloro-1-methyl-1H-indazol-3-yl)-5H-pyrrolo[2,3-b]pyrazine-7-carboxylic acid (trans-3-hydroxy-cyclohexyl)-amide], for which the IC50 worked out at 19.3 nM in assay [1] and 55.5 nM in assay [2].

On to `Cn1nc(-c2cnc3[nH]cc(C(=O)N[C@@H]4CCC[C@H](O)C4)c3n2)c2ccc(Cl)cc21` (relative stereo) [Example I-149, 2-(6-Chloro-1-methyl-1H-indazol-3-yl)-5H-pyrrolo[2,3-b]pyrazine-7-carboxylic acid (cis-3-hydroxy-cyclohexyl)-amide], for which the IC50 in assay [1] was found to be 52 nM; in assay [2] it was 10.3 nM.

For the compound `Cn1nc(-c2cnc3[nH]cc(C(=O)N[C@@H]4CCC[C@@H](C#N)C4)c3n2)c2ccc(Cl)cc21` (relative stereo) [Example I-156, 2-(6-Chloro-1-methyl-1H-indazol-3-yl)-5H-pyrrolo[2,3-b]pyrazine-7-carboxylic acid (trans-3-cyano-cyclohexyl)-amide], the IC50 in assay [1] is 85.1 nM; in assay [2], 5.47 nM.

With `Cn1nc(-c2cnc3[nH]cc(C(=O)N[C@@H]4CCC[C@H](C#N)C4)c3n2)c2ccc(Cl)cc21` (relative stereo) [Example I-167, 2-(6-Chloro-1-methyl-1H-indazol-3-yl)-5H-pyrrolo[2,3-b]pyrazine-7-carboxylic acid (cis-3-cyano-cyclohexyl)-amide], the IC50 in assay [1] was determined as 75 nM; in assay [2] it was 197 nM.

As for `C[C@H](O)[C@H](C)NC(=O)c1c[nH]c2ncc(-c3nn(C)c4cc(Cl)ccc34)nc12` (relative stereo) [Example I-201, 2-(6-Chloro-1-methyl-1H-indazol-3-yl)-5H-pyrrolo[2,3-b]pyrazine-7-carboxylic acid (trans-2-hydroxy-1-methyl-propyl)-amide], the IC50 in assay [1] was 7.57 nM; in assay [2], 10.5 nM.

Regarding `CC(NC(=O)c1c[nH]c2ncc(-c3nn(C)c4cc(F)ccc34)nc12)C(O)C1CCOCC1` (single isomer, unassigned) [Example I-203, 2-(6-Fluoro-1-methyl-1H-indazol-3-yl)-5H-pyrrolo[2,3-b]pyrazine-7-carboxylic acid [cis-2-hydroxy-1-methyl-2-(tetrahydro-pyran-4-yl)-ethyl]-amide], the IC50 in assay [1] came out at 197 nM; in assay [2] it was 263 nM.

In the case of `CC(NC(=O)c1c[nH]c2ncc(-c3nn(C)c4cc(F)ccc34)nc12)C(O)C1CCOCC1` (single isomer, unassigned) [Example I-204, 2-(6-Fluoro-1-methyl-1H-indazol-3-yl)-5H-pyrrolo[2,3-b]pyrazine-7-carboxylic acid [trans-2-hydroxy-1-methyl-2-(tetrahydro-pyran-4-yl)-ethyl]-amide], the IC50 in assay [1] amounted to 205 nM; in assay [2] it was 217 nM.

Take `C[C@@H](NC(=O)c1c[nH]c2ncc(-c3nn(C)c4cc(Cl)ccc34)nc12)c1ccccc1` [Example I-25, 2-(6-Chloro-1-methyl-1H-indazol-3-yl)-5H-pyrrolo[2,3-b]pyrazine-7-carboxylic acid ((R)-1-phenyl-ethyl)-amide]: the IC50 was determined as 54.2 nM in assay [1] and 19.2 nM in assay [2].

Consider `Cc1ccc2c(-c3cnc4[nH]cc(C(=O)N[C@H](C)C(=O)N5CC(C#N)C5)c4n3)ncn2c1` [Example I-31, 2-(6-Methyl-imidazo[1,5-a]pyridin-1-yl)-5H-pyrrolo[2,3-b]pyrazine-7-carboxylic acid [(R)-2-(3-cyano-azetidin-1-yl)-1-methyl-2-oxo-ethyl]-amide], for which the results for the IC50 in assay [1] and in assay [2] were 53.1 nM and 0.335 nM, respectively.

On to `Cn1nc(-c2cnc3[nH]cc(C(=O)N[C@@H]4CC[C@@H](C#N)C4)c3n2)c2ccc(Cl)cc21` [Example I-36, 2-(6-Chloro-1-methyl-1H-indazol-3-yl)-5H-pyrrolo[2,3-b]pyrazine-7-carboxylic acid ((1R,3R)-3-cyano-cyclopentyl)-amide], for which the IC50 turned out to be 27.2 nM in assay [1] and 19 nM in assay [2].

For `Cn1nc(-c2cnc3[nH]cc(C(=O)NC4CCC(N)C4)c3n2)c2ccc(Cl)cc21` (centres unmarked) [Example I-37, 2-(6-Chloro-1-methyl-1H-indazol-3-yl)-5H-pyrrolo[2,3-b]pyrazine-7-carboxylic acid (3-amino-cyclopentyl)-amide], the IC50 in assay [1] is 6.4 nM; in assay [2], 39.2 nM.

As for `Cn1nc(-c2cnc3[nH]cc(C(=O)NC4CCC(NS(C)(=O)=O)C4)c3n2)c2ccc(Cl)cc21` (centres unmarked) [Example I-38, 2-(6-Chloro-1-methyl-1H-indazol-3-yl)-5H-pyrrolo[2,3-b]pyrazine-7-carboxylic acid (3-methanesulfonylamino-cyclopentyl)-amide], the IC50 in assay [1] was 15.9 nM; in assay [2], 9.01 nM.

Turning to `COC[C@H](C)NC(=O)c1c[nH]c2ncc(-c3nc(Cl)n4cc(F)ccc34)nc12` [Example I-39, 2-(3-Chloro-6-fluoro-imidazo[1,5-a]pyridin-1-yl)-5H-pyrrolo[2,3-b]pyrazine-7-carboxylic acid ((S)-2-methoxy-1-methyl-ethyl)-amide], the IC50 turned out to be 243 nM in assay [1] and 5.81 nM in assay [2].

For the compound `COC[C@H](C)NC(=O)c1c[nH]c2ncc(-c3ncn4cc(F)cc(F)c34)nc12` [Example I-40, 2-(6,8-Difluoro-imidazo[1,5-a]pyridin-1-yl)-5H-pyrrolo[2,3-b]pyradine-7-carboxylic acid ((S)-2-methoxy-1-methyl-ethyl)-amide], the IC50 is 994 nM in assay [1] and 10.2 nM in assay [2].

Consider `C[C@@H](NC(=O)c1c[nH]c2ncc(-c3nn(C)c4cc(F)ccc34)nc12)C(C)(C)F` [Example I-44, 2-(6-Fluoro-1-methyl-1H-indazol-3-yl)-5H-pyrrolo[2,3-b]pyrazine-7-carboxylic acid ((R)-2-fluoro-1,2-dimethyl-propyl)-amide], for which the IC50 in assay [1] is 16 nM; in assay [2], 13.9 nM.

For the compound `C[C@H](NC(=O)c1c[nH]c2ncc(-c3nn(C)c4cc(F)ccc34)nc12)C(C)(C)C` [Example I-45, 2-(6-Fluoro-1-methyl-1H-indazol-3-yl)-5H-pyrrolo[2,3-b]pyrazine-7-carboxylic acid ((S)-1,2,2-trimethyl-propyl)-amide], the IC50 in assay [1] was 11 nM; in assay [2] it was 0.535 nM.

Consider `CC(NC(=O)c1c[nH]c2ncc(-c3nn(C)c4cc(Cl)ccc34)nc12)c1ncco1` (centres unmarked) [Example I-48, 2-(6-Chloro-1-methyl-1H-indazol-3-yl)-5H-pyrrolo[2,3-b]pyrazine-7-carboxylic acid (1-oxazol-2-yl-ethyl)-amide], for which the IC50 in assay [1] was found to be 22.1 nM; in assay [2], 4.91 nM.

In the case of `CC(NC(=O)c1c[nH]c2ncc(-c3nn(C)c4cc(F)ccc34)nc12)c1cocn1` (centres unmarked) [Example I-52, 2-(6-Fluoro-1-methyl-1H-indazol-3-yl)-5H-pyrrolo[2,3-b]pyrazine-7-carboxylic acid (1-oxazol-4-yl-ethyl)-amide], the IC50 in assay [1] came to 19.4 nM; in assay [2], 8.87 nM.

Regarding `COC[C@H](C)NC(=O)c1c[nH]c2ncc(-c3nn(Cc4ccccn4)c4cc(F)ccc34)nc12` [Example I-240, 2-(6-Fluoro-1-pyridin-2-ylmethyl-1H-indazol-3-yl)-5H-pyrrolo[2,3-b]pyrazine-7-carboxylic acid ((S)-2-methoxy-1-methyl-ethyl)-amide], in assay [2], the IC50 is 0.615 nM.

As for `Cn1nc(-c2cnc3[nH]cc(C(=O)NC(C)(C)C)c3n2)c2cc(OC(F)F)ccc21` [Example I-284, 2-(5-Difluoromethoxy-1-methyl-1H-indazol-3-yl)-5H-pyrrolo[2,3-b]pyrazine-7-carboxylic acid tert-butylamide], the IC50 in assay [2] stood at 71.2 nM.

As to `Cn1nc(-c2cnc3[nH]cc(C(=O)NC(C)(C)C)c3n2)c2ccc(Cl)cc21` [Example I-305, 2-(6-Chloro-1-methyl-1H-indazol-3-yl)-5H-pyrrolo[2,3-b]pyrazine-7-carboxylic acid tert-butylamide], the IC50 in assay [2] was found to be 444 nM.

As to `CC(C)NC(=O)c1c[nH]c2ncc(-c3nn(CC4CC4)c4cc(Cl)ccc34)nc12` [Example I-309, 2-(6-Chloro-1-cyclopropylmethyl-1H-indazol-3-yl)-5H-pyrrolo[2,3-b]pyrazine-7-carboxylic acid isopropylamide], in assay [2], the IC50 came out at 28.6 nM.

`Cn1nc(-c2cnc3[nH]cc(C(=O)NC(C)(C)CO)c3n2)c2ccc(F)cc21` [Example I-363, 2-(6-Fluoro-1-methyl-1H-indazol-3-yl)-5H-pyrrolo[2,3-b]pyrazine-7-carboxylic acid (2-hydroxy-1,1-dimethyl-ethyl)-amide]: the IC50 in assay [2] was more than 1000 nM.
